Experimental data taken from US8604034B2, “Substituted imidazo[1,2-α]pyrrolo[1,2-d]pyrazines for treating respiratory syncytial virus (RSV) infections” (Biota Scientific Management Pty Ltd., priority 2010, dated 2013).
Counter-ions that a name gives are not always drawn. Like-named read-outs stand apart in the source and are kept apart here.

System: RSV A2
Experiment: RSV antiviral cytopathic effect (CPE) assay
Type: cell-based
Settings: human respiratory syncytial virus, HEp-2, 120 h, HEp2 cells infected with RSV A2 (moi ~0.01), 5 days, MTT readout
How it was run: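 HEp2 cells infected with RSV A2 (moi ~0.01) and incubated with serially diluted compound for 5 days at 37 °C. CPE read by MTT metabolism (absorbance 540/650 nm); uninfected cells gave cytotoxicity. EC50 and CC50 obtained by non-linear regression.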

[1] = read-out: Activity Range (RSV A2 EC50)
[2] = mean EC50, read-out: RSV A2 EC50

SMILES	EC50 [1] [µM]	EC50 [2] [µM]
COc1ccc(C23Cn4c(C#N)ccc4C(=O)N2CCN3C(=O)c2conc2C)cc1 (stereo not drawn) [Compound 106, 10a-(4-methoxyphenyl)-1-[(3-methyl-1,2-oxazol-4-yl)carbonyl]-5-oxo-2,3,10,10a-tetrahydro-1H,5H-imidazo[1,2-a]pyrrolo[1,2-d]pyrazine-8-carbonitrile]	< 0.049	0.0041
COc1ccc(C23Cn4c(C)ccc4C(=O)N2CCN3C(=O)c2conc2C)cc1 (stereo not drawn) [Compound 107, 10a-(4-methoxyphenyl)-8-methyl-1-[(3-methyl-1,2-oxazol-4-yl)carbonyl]-2,3,10,10a-tetrahydro-1H,5H-imidazo[1,2-a]pyrrolo[1,2-d]pyrazin-5-one]	< 0.049	0.014
C#Cc1ccc2n1CC1(c3ccc(OC)cc3)N(C(=O)c3conc3C)CCN1C2=O (stereo not drawn) [Compound 108, 8-ethynyl-10a-(4-methoxyphenyl)-1-[(3-methyl-1,2-oxazol-4-yl)carbonyl]-2,3,10,10a-tetrahydro-1H,5H-imidazo[1,2-a]pyrrolo[1,2-d]pyrazin-5-one]	< 0.049	0.017
Cc1nocc1C(=O)N1CCN2C(=O)c3cccn3CC12c1ccc(OCCO)cc1 (stereo not drawn) [Compound 109, 10a-[4-(2-hydroxyethoxy)phenyl]-1-[(3-methyl-1,2-oxazol-4-yl)carbonyl]-2,3,10,10a-tetrahydro-1H,5H-imidazo[1,2-a]pyrrolo[1,2-d]pyrazin-5-one]	0.1 to 0.499	0.3
Cc1nocc1C(=O)N1CCN2C(=O)c3cccn3CC12c1ccc(OCCN2CCOCC2)cc1 (stereo not drawn) [Compound 110, 1-[(3-methyl-1,2-oxazol-4-yl)carbonyl]-10a-{4-[2-(morpholin-4-yl)ethoxy]phenyl}-2,3,10,10a-tetrahydro-1H,5H-imidazo[1,2-a]pyrrolo[1,2-d]pyrazin-5-one]	0.5 to 10	0.68
COc1ccc(C23Cn4cc(N)cc4C(=O)N2CCN3C(=O)c2conc2C)cc1 (stereo not drawn) [Compound 111, 7-amino-10a-(4-methoxyphenyl)-1-[(3-methyl-1,2-oxazol-4-yl)carbonyl]-2,3,10,10a-tetrahydro-1H,5H-imidazo[1,2-a]pyrrolo[1,2-d]pyrazin-5-one]	> 10	16
COc1ccc(C23Cn4cc(NC5CCCCC5)cc4C(=O)N2CCN3C(=O)c2conc2C)cc1 (stereo not drawn) [Compound 112, 7-(cyclohexylamino)-10a-(4-methoxyphenyl)-1-[(3-methyl-1,2-oxazol-4-yl)carbonyl]-2,3,10,10a-tetrahydro-1H,5H-imidazo[1,2-a]pyrrolo[1,2-d]pyrazin-5-one]	> 10	
COc1ccc(C23Cn4cc(-n5ccnn5)cc4C(=O)N2CCN3C(=O)c2conc2C)cc1 (stereo not drawn) [Compound 113, 10a-(4-methoxyphenyl)-1-[(3-methyl-1,2-oxazol-4-yl)carbonyl]-7-(1H-1,2,3-triazol-1-yl)-2,3,10,10a-tetrahydro-1H,5H-imidazo[1,2-a]pyrrolo[1,2-d]pyrazin-5-one]	0.1 to 0.499	0.32
Cc1cnc(C23Cn4cccc4C(=O)N2CCN3C(=O)c2conc2C)cn1 (stereo not drawn) [Compound 114]	< 0.049	0.039
COc1ccc(C23Cn4cccc4C(=O)N2CCN3C(=O)c2conc2C)nc1 (stereo not drawn) [Compound 115]	0.1 to 0.499	0.23
Cc1nocc1C(=O)N1CCN2C(=O)c3cccn3CC12c1ccc(C(F)(F)F)cn1 (stereo not drawn) [Compound 116, 1-[(3-methyl-1,2-oxazol-4-yl)carbonyl]-10a-[5-(trifluoromethyl)pyridin-2-yl]-2,3,10,10a-tetrahydro-1H,5H-imidazo[1,2-a]pyrrolo[1,2-d]pyrazin-5-one]	0.05 to 0.099	0.059
Cc1ccc(C23Cn4cc(Br)cc4C(=O)N2CCN3C(=O)c2conc2C)nc1 (stereo not drawn) [Compound 117]	0.5 to 10	0.88
Cc1nocc1C(=O)N1CCN2C(=O)c3cccn3CC12c1cnn(C)c1 (stereo not drawn) [Compound 118]	0.1 to 0.499	0.32
Cc1cc(C23Cn4cccc4C(=O)N2CCN3C(=O)c2conc2C)ccn1 (stereo not drawn) [Compound 119]	0.05 to 0.099	0.096
Cc1ccc(C23Cn4cc(-c5cccnc5)cc4C(=O)N2CCN3C(=O)c2conc2C)nc1 (stereo not drawn) [Compound 120]	0.05 to 0.099	0.087
Cc1cnc(C23Cn4cc(-c5cccnc5)cc4C(=O)N2CCN3C(=O)c2conc2C)cn1 (stereo not drawn) [Compound 121, 1-[(3-methyl-1,2-oxazol-4-yl)carbonyl]-10a-(5-methylpyrazin-2-yl)-7-(pyridin-3-yl)-2,3,10,10a-tetrahydro-1H,5H-imidazo[1,2-a]pyrrolo[1,2-d]pyrazin-5-one]	< 0.049	0.042
Cc1nocc1C(=O)N1CCN2C(=O)c3cccn3CC12c1ccncc1 (stereo not drawn) [Compound 122, 1-[(3-methyl-1,2-oxazol-4-yl)carbonyl]-10a-(pyridin-4-yl)-2,3,10,10a-tetrahydro-1H,5H-imidazo[1,2-a]pyrrolo[1,2-d]pyrazin-5-one]	0.1 to 0.499	0.43
Cc1ccc(C23Cn4c(C#N)ccc4C(=O)N2CCN3C(=O)c2conc2C)cn1 (stereo not drawn) [Compound 126]	< 0.049	0.0078
Cc1ccc(C23Cn4cc(-c5ccccn5)cc4C(=O)N2CCN3C(=O)c2conc2C)cn1 (stereo not drawn) [Compound 127]	< 0.049	0.027
COc1ccc(C23Cn4cc(-c5ccccn5)cc4C(=O)N2CCN3C(=O)c2conc2C)cn1 (stereo not drawn) [Compound 128]	0.05 to 0.099	0.064
Cc1nocc1C(=O)N1CCN2C(=O)c3cc(-c4ccccn4)nn3CC12c1ccc(F)cc1 (stereo not drawn) [Compound 129]	0.1 to 0.499	0.13

SMILES	EC50 [1] [µM]	EC50 [2] [µM]
COc1ccc(C23Cn4cccc4C(=O)N2CCN3C(=O)NCc2ccco2)cc1 (stereo not drawn) [Compound 130]	> 10	
COc1ccc(C23Cn4cccc4C(=O)N2CCN3S(=O)(=O)c2ccccc2)cc1 (stereo not drawn) [Compound 131]	> 10	
Cc1ccc(C23Cn4cc(-c5cnn(C)c5)cc4C(=O)N2CCN3C(=O)c2conc2C)cn1 (stereo not drawn) [Compound 132]	< 0.049	0.031
COc1ccc(C23Cn4c(C#N)ccc4C(=O)N2CCN3C(=O)c2conc2C)cn1 (stereo not drawn) [Compound 133]	< 0.049	0.007
Cc1ccc(C23Cn4cc(-c5cnn(C)c5)cc4C(=O)N2CCN3C(=O)c2conc2C)nc1 (stereo not drawn) [Compound 134]	< 0.049	0.031
Cc1ccc(C23Cn4cc(-c5ccncc5)cc4C(=O)N2CCN3C(=O)c2conc2C)cn1 (stereo not drawn) [Compound 135]	< 0.049	0.0091
COc1ccc(C23Cn4cccc4C(=O)N2CCN3C(=O)c2nonc2C)cc1 (stereo not drawn) [Compound 136]	0.5 to 10	0.89
COc1ccc(C23Cn4cccc4C(=O)N2CCN3C(=O)c2ccsc2)cc1 (stereo not drawn) [Compound 137]	0.5 to 10	6.6
COc1ccc(C23Cn4nc(-c5ccccn5)cc4C(=O)N2CCN3C(=O)c2conc2C)cc1 (stereo not drawn) [Compound 138]	0.5 to 10	4.2
Cc1ccc(C23Cn4nc(-c5ccccn5)cc4C(=O)N2CCN3C(=O)c2conc2C)cc1 (stereo not drawn) [Compound 139]	0.05 to 0.099	0.066
Cc1nocc1C(=O)N1CCN2C(=O)c3cc(-c4cccn4C)nn3CC12c1ccc(Cl)cc1 (stereo not drawn) [Compound 140]	0.5 to 10	0.55
Cc1nocc1C(=O)N1CCN2C(=O)c3cc(-c4cccs4)nn3CC12c1ccc(Cl)cc1 (stereo not drawn) [Compound 141]	< 0.049	0.039
Cc1nocc1C(=O)N1CCN2C(=O)c3cccn3CC12c1ccc(O)nc1 (stereo not drawn) [Compound 142, 10a-(6-hydroxypyridin-3-yl)-1-[(3-methyl-1,2-oxazol-4-yl)carbonyl]-2,3,10,10a-tetrahydro-1H,5H-imidazo[1,2-a]pyrrolo[1,2-d]pyrazin-5-one]	0.5 to 10	6.7
Cc1nocc1C(=O)N1CCN2C(=O)c3cccn3CC12c1ccc(=O)n(C)c1 (stereo not drawn) [Compound 143, 1-[(3-methyl-1,2-oxazol-4-yl)carbonyl]-10a-(1-methyl-6-oxo-1,6-dihydropyridin-3-yl)-2,3,10,10a-tetrahydro-1H,5H-imidazo[1,2-a]pyrrolo[1,2-d]pyrazin-5-one]	0.5 to 10	0.75
Cc1nocc1C(=O)N1CCN2C(=O)c3cc(-c4cnn(C)c4)cn3CC12c1ccc(CO)cc1 (stereo not drawn) [Compound 144]	0.05 to 0.099	0.079
COc1ccc(C23Cn4cc(-c5nnnn5C)cc4C(=O)N2CCN3C(=O)c2conc2C)cc1 (stereo not drawn) [Compound 145, 10a-(4-methoxyphenyl)-1-[(3-methyl-1,2-oxazol-4-yl)carbonyl]-7-(1-methyl-1H-tetrazol-5-yl)-2,3,10,10a-tetrahydro-1H,5H-imidazo[1,2-a]pyrrolo[1,2-d]pyrazin-5-one]	0.5 to 10	3.7
COc1ccc(C23Cn4cc(-c5nnn(C)n5)cc4C(=O)N2CCN3C(=O)c2conc2C)cc1 (stereo not drawn) [Compound 146, 10a-(4-methoxyphenyl)-1-[(3-methyl-1,2-oxazol-4-yl)carbonyl]-7-(2-methyl-2H-tetrazol-5-yl)-2,3,10,10a-tetrahydro-1H,5H-imidazo[1,2-a]pyrrolo[1,2-d]pyrazin-5-one]	< 0.049	0.046
COc1ccc(C23Cn4cc(CN)cc4C(=O)N2CCN3C(=O)c2conc2C)cc1 (stereo not drawn) [Compound 147, 7-(aminomethyl)-10a-(4-methoxyphenyl)-1-[(3-methyl-1,2-oxazol-4-yl)carbonyl]-2,3,10,10a-tetrahydro-1H,5H-imidazo[1,2-a]pyrrolo[1,2-d]pyrazin-5-one; trifluoroacetate salt]	0.1 to 0.499	0.39
Cc1nocc1C(=O)N1CCN2C(=O)c3cccc(=O)n3CC12c1ccc(F)cc1 (stereo not drawn) [Compound 148]	< 0.049	0.038
COc1ccc(C23Cn4c(cccc4=O)C(=O)N2CCN3C(=O)c2conc2C)cc1 (stereo not drawn) [Compound 149]	0.1 to 0.499	0.13
Cc1ccc(C23Cn4c(cccc4=O)C(=O)N2CCN3C(=O)c2conc2C)cc1 (stereo not drawn) [Compound 150]	< 0.049	0.011
